Data: patent US20100267561A1, “HERBICIDAL PYRIDAZINONE DERIVATIVES” (priority 2007, published 2010)

Experiments:
Type in all cases: in vivo
[1] = test system: spring wheat (Triticum aestivum); assay: Test C pre-/postemergence plant response; details: Preemergence
Summary of the method: (§1)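 Plant response was judged by eye against untreated controls following 15 to 25 days in a controlled growth environment, using 0 for no effect and 100 for complete control. Treatments were made both preemergence and postemergence, the latter on plants of 1- to 4-leaf stage.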

[2] = test system: blackgrass (Alopecurus myosuroides); assay: Test C pre-/postemergence plant response; details: Preemergence
Summary of the method: as §1

[3] = test system: wild mustard (Sinapis arvensis); assay: Test C pre-/postemergence plant response; details: Preemergence
Summary of the method: as §1

[4] = test system: windgrass (Apera spica-venti); assay: Test C pre-/postemergence plant response; details: Preemergence
Summary of the method: as §1

[5] = test system: downy bromegrass (Bromus tectorum); assay: Test C pre-/postemergence plant response; details: Preemergence
Summary of the method: as §1

[6] = test system: annual bluegrass (Poa annua); assay: Test C pre-/postemergence plant response; details: Preemergence
Summary of the method: as §1

[7] = test system: winter barley (Hordeum vulgare); assay: Test C pre-/postemergence plant response; details: Preemergence
Summary of the method: as §1

[8] = test system: Italian ryegrass (Lolium multiflorum); assay: Test C pre-/postemergence plant response; details: Preemergence
Summary of the method: as §1

[9] = test system: winter wheat (Triticum aestivum); assay: Test C pre-/postemergence plant response; details: Preemergence
Summary of the method: as §1

[10] = test system: pigweed (Amaranthus retroflexus); assay: Test C pre-/postemergence plant response; details: Preemergence
Summary of the method: as §1

[11] = test system: canarygrass (Phalaris minor); assay: Test C pre-/postemergence plant response; details: Preemergence
Summary of the method: as §1

[12] = test system: green foxtail (Setaria viridis); assay: Test C pre-/postemergence plant response; details: Preemergence
Summary of the method: as §1

wild oat (Avena fatua) = assay: Test C pre-/postemergence plant response; details: Preemergence
Summary of the method: as §1

[13] = test system: spring barley (Hordeum vulgare); assay: Test C pre-/postemergence plant response; details: Preemergence
Summary of the method: as §1

[14] = test system: umbrella sedge (Cyperus difformis); assay: Test B flooded paddy test plant response
Summary of the method: (§2)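 2-leaf plants; pots flooded 3 cm above soil; compound added to paddy water; depth maintained. Greenhouse 13–15 d. Visual rating vs controls, 0 (no effect) to 100 (complete control); dash = no result.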

rice (Oryza sativa) = assay: Test B flooded paddy test plant response
Summary of the method: as §2

[15] = test system: ducksalad (Heteranthera limosa); assay: Test B flooded paddy test plant response
Summary of the method: as §2

[16] = 8 g ai/ha, scale 0 to 100 (0 no effect, 100 complete control)
[17] = 16 g ai/ha, scale 0 to 100 (0 no effect, 100 complete control)
[18] = 31 g ai/ha, scale 0 to 100 (0 no effect, 100 complete control)
[19] = 62 g ai/ha, scale 0 to 100, 0 no effect, 100 complete control
[20] = Flood (flooded paddy test), 62 g ai/ha, scale 0 to 100, 0 no effect, 100 complete control
[21] = Flood (flooded paddy test), 125 g ai/ha, scale 0 to 100, 0 no effect, 100 complete control
[22] = Flood (flooded paddy test), 250 g ai/ha, scale 0 to 100, 0 no effect, 100 complete control
[23] = Flood, 31 g ai/ha, scale 0 to 100

## Cn1ncc(O)c(-c2nn(-c3ccc(Cl)cc3)cc2Cl)c1=O [Compound 28]
[1]; [16]
  Plant response rating, Wheat, Spring: 0
[1]; [17]
  Plant response rating, Wheat, Spring: 0
[1]; [18]
  Plant response rating, Wheat, Spring: 35
[1]; [19]
  Plant response rating, Wheat, Spring: 50
[2]; [16]
  Plant response rating, Blackgrass: 0
[2]; [17]
  Plant response rating, Blackgrass: 5
[2]; [18]
  Plant response rating, Blackgrass: 15
[2]; [19]
  Plant response rating, Blackgrass: 85
[3]; [16]
  Plant response rating, Mustard, Wild: 0
[3]; [17]
  Plant response rating, Mustard, Wild: 0
[3]; [18]
  Plant response rating, Mustard, Wild: 0
[3]; [19]
  Plant response rating, Mustard, Wild: 0
[4]; [16]
  Plant response rating, Windgrass: 20
[4]; [17]
  Plant response rating, Windgrass: 30
[4]; [18]
  Plant response rating, Windgrass: 75
[4]; [19]
  Plant response rating, Windgrass: 85
[5]; [16]
  Plant response rating, Bromegrass, Downy: 0
[5]; [17]
  Plant response rating, Bromegrass, Downy: 0
[5]; [18]
  Plant response rating, Bromegrass, Downy: 20
[5]; [19]
  Plant response rating, Bromegrass, Downy: 75
[6]; [16]
  Plant response rating, Bluegrass: 0
[6]; [17]
  Plant response rating, Bluegrass: 0
[6]; [19]
  Plant response rating, Bluegrass: 50
[7]; [16]
  Plant response rating, Barley, Winter: 0
[7]; [17]
  Plant response rating, Barley, Winter: 0
[7]; [18]
  Plant response rating, Barley, Winter: 0
[7]; [19]
  Plant response rating, Barley, Winter: 40
[8]; [16]
  Plant response rating, Ryegrass, Italian: 0
[8]; [17]
  Plant response rating, Ryegrass, Italian: 15
[8]; [18]
  Plant response rating, Ryegrass, Italian: 90
[8]; [19]
  Plant response rating, Ryegrass, Italian: 95
[9]; [16]
  Plant response rating, Wheat, Winter: 0
[9]; [17]
  Plant response rating, Wheat, Winter: 10
[9]; [18]
  Plant response rating, Wheat, Winter: 30
[9]; [19]
  Plant response rating, Wheat, Winter: 60
[10]; [16]
  Plant response rating, Pigweed: 0
[10]; [17]
  Plant response rating, Pigweed: 0
[10]; [18]
  Plant response rating, Pigweed: 0
[10]; [19]
  Plant response rating, Pigweed: 0
[11]; [16]
  Plant response rating, Canarygrass: 0
[11]; [17]
  Plant response rating, Canarygrass: 0
[11]; [18]
  Plant response rating, Canarygrass: 10
[11]; [19]
  Plant response rating, Canarygrass: 90
[12]; [16]
  Plant response rating, Foxtail, Green: 0
[12]; [17]
  Plant response rating, Foxtail, Green: 20
[12]; [18]
  Plant response rating, Foxtail, Green: 100
[12]; [19]
  Plant response rating, Foxtail, Green: 100
Wild oat (Avena fatua); [16]
  Plant response rating, Oat, Wild: 0
Wild oat (Avena fatua); [17]
  Plant response rating, Oat, Wild: 0
Wild oat (Avena fatua); [18]
  Plant response rating, Oat, Wild: 20
Wild oat (Avena fatua); [19]
  Plant response rating, Oat, Wild: 75
[13]; [16]
  Plant response rating, Barley, Spring: 0
[13]; [17]
  Plant response rating, Barley, Spring: 15
[13]; [18]
  Plant response rating, Barley, Spring: 15
[13]; [19]
  Plant response rating, Barley, Spring: 25
[14]; [20]
  Plant response rating, Sedge, Umbrella: 0
[14]; [21]
  Plant response rating, Sedge, Umbrella: 0
[14]; [22]
  Plant response rating, Sedge, Umbrella: 0
[14]; [23]
  Plant response rating, Sedge, Umbrella: 0
Rice (Oryza sativa); [20]
  Plant response rating, Rice: 0
Rice (Oryza sativa); [21]
  Plant response rating, Rice: 0
Rice (Oryza sativa); [22]
  Plant response rating, Rice: 60
Rice (Oryza sativa); [23]
  Plant response rating, Rice: 0
[15]; [20]
  Plant response rating, Ducksalad: 0
[15]; [21]
  Plant response rating, Ducksalad: 0
[15]; [22]
  Plant response rating, Ducksalad: 0
[15]; [23]
  Plant response rating, Ducksalad: 0

## Cc1cn(-c2ccc(Cl)cc2)nc1-c1c(O)cnn(C)c1=O [Compound 30, 4-[1-(4-chlorophenyl)-4-methyl-1H-pyrazol-3-yl]-5-hydroxy-2-methyl-3(2H)-pyridazinone]
[1]; [16]
  Plant response rating, Wheat, Spring: 0
[1]; [17]
  Plant response rating, Wheat, Spring: 0
[1]; [18]
  Plant response rating, Wheat, Spring: 0
[1]; [19]
  Plant response rating, Wheat, Spring: 20
[2]; [16]
  Plant response rating, Blackgrass: 0
[2]; [17]
  Plant response rating, Blackgrass: 20
[2]; [18]
  Plant response rating, Blackgrass: 90
[2]; [19]
  Plant response rating, Blackgrass: 98
[3]; [18]
  Plant response rating, Mustard, Wild: 0
[4]; [19]
  Plant response rating, Windgrass: 35
[5]; [16]
  Plant response rating, Bromegrass, Downy: 0
[5]; [17]
  Plant response rating, Bromegrass, Downy: 0
[5]; [18]
  Plant response rating, Bromegrass, Downy: 0
[5]; [19]
  Plant response rating, Bromegrass, Downy: 0
[6]; [16]
  Plant response rating, Bluegrass: 0
[6]; [17]
  Plant response rating, Bluegrass: 0
[6]; [18]
  Plant response rating, Bluegrass: 0
[6]; [19]
  Plant response rating, Bluegrass: 0
[7]; [16]
  Plant response rating, Barley, Winter: 0
[7]; [17]
  Plant response rating, Barley, Winter: 0
[7]; [18]
  Plant response rating, Barley, Winter: 0
[7]; [19]
  Plant response rating, Barley, Winter: 15
[8]; [16]
  Plant response rating, Ryegrass, Italian: 0
[8]; [17]
  Plant response rating, Ryegrass, Italian: 30
[8]; [18]
  Plant response rating, Ryegrass, Italian: 60
[8]; [19]
  Plant response rating, Ryegrass, Italian: 75
[9]; [16]
  Plant response rating, Wheat, Winter: 0
[9]; [17]
  Plant response rating, Wheat, Winter: 0
[9]; [18]
  Plant response rating, Wheat, Winter: 0
[9]; [19]
  Plant response rating, Wheat, Winter: 0
[10]; [16]
  Plant response rating, Pigweed: 0
[10]; [17]
  Plant response rating, Pigweed: 0
[10]; [18]
  Plant response rating, Pigweed: 0
[10]; [19]
  Plant response rating, Pigweed: 0
[11]; [16]
  Plant response rating, Canarygrass: 0
[11]; [17]
  Plant response rating, Canarygrass: 0
[11]; [18]
  Plant response rating, Canarygrass: 65
[11]; [19]
  Plant response rating, Canarygrass: 90
[12]; [16]
  Plant response rating, Foxtail, Green: 10
[12]; [17]
  Plant response rating, Foxtail, Green: 25
[12]; [18]
  Plant response rating, Foxtail, Green: 80
[12]; [19]
  Plant response rating, Foxtail, Green: 100
Wild oat (Avena fatua); [16]
  Plant response rating, Oat, Wild: 0
Wild oat (Avena fatua); [17]
  Plant response rating, Oat, Wild: 0
Wild oat (Avena fatua); [18]
  Plant response rating, Oat, Wild: 30
Wild oat (Avena fatua); [19]
  Plant response rating, Oat, Wild: 40
[13]; [16]
  Plant response rating, Barley, Spring: 0
[13]; [17]
  Plant response rating, Barley, Spring: 0
[13]; [18]
  Plant response rating, Barley, Spring: 30
[13]; [19]
  Plant response rating, Barley, Spring: 50
[14]; Cyperus difformis, Flood (flooded paddy test), 62 g ai/ha, scale 0 to 100, 0 no effect, 100 complete control, read-out: Plant response rating, Sedge, Umbrella
  pest or weed control at 62 g/ha: 0%
[14]; Cyperus difformis, Flood (flooded paddy test), 125 g ai/ha, scale 0 to 100, 0 no effect, 100 complete control, read-out: Plant response rating, Sedge, Umbrella
  pest or weed control at 125 g/ha: 0%
[14]; Cyperus difformis, Flood (flooded paddy test), 250 g ai/ha, scale 0 to 100, 0 no effect, 100 complete control, read-out: Plant response rating, Sedge, Umbrella
  pest or weed control at 250 g/ha: 0%
[14]; Cyperus difformis, Flood, 31 g ai/ha, scale 0 to 100, read-out: Plant response rating, Sedge, Umbrella
  pest or weed control at 31 g/ha: 0%
Rice (Oryza sativa); Oryza sativa, Flood (flooded paddy test), 62 g ai/ha, scale 0 to 100, 0 no effect, 100 complete control, read-out: Plant response rating, Rice
  plant injury at 62 g/ha: 0%
Rice (Oryza sativa); Oryza sativa, Flood (flooded paddy test), 125 g ai/ha, scale 0 to 100, 0 no effect, 100 complete control, read-out: Plant response rating, Rice
  plant injury at 125 g/ha: 0%
Rice (Oryza sativa); Oryza sativa, Flood (flooded paddy test), 250 g ai/ha, scale 0 to 100, 0 no effect, 100 complete control, read-out: Plant response rating, Rice
  plant injury at 250 g/ha: 0%
Rice (Oryza sativa); Oryza sativa, Flood, 31 g ai/ha, scale 0 to 100, read-out: Plant response rating, Rice
  plant injury at 31 g/ha: 0%
[15]; Heteranthera limosa, Flood (flooded paddy test), 62 g ai/ha, scale 0 to 100, 0 no effect, 100 complete control, read-out: Plant response rating, Ducksalad
  pest or weed control at 62 g/ha: 0%
[15]; Heteranthera limosa, Flood (flooded paddy test), 125 g ai/ha, scale 0 to 100, 0 no effect, 100 complete control, read-out: Plant response rating, Ducksalad
  pest or weed control at 125 g/ha: 0%
[15]; Heteranthera limosa, Flood (flooded paddy test), 250 g ai/ha, scale 0 to 100, 0 no effect, 100 complete control, read-out: Plant response rating, Ducksalad
  pest or weed control at 250 g/ha: 0%
[15]; Heteranthera limosa, Flood, 31 g ai/ha, scale 0 to 100, read-out: Plant response rating, Ducksalad
  pest or weed control at 31 g/ha: 0%
